From patent US5312816A, “Method of combatting osteoporosis in mammalian subjects, utilizing organic boron compounds” (priority 1993, dated 1994)
One block for each compound: values may come before it.

Tests used:
Sprague Dawley male rats = assay: Chronic adjuvant arthritis screen, Mycobacterium butyricum; assay type: in vivo; settings: Table 1; Indomethacin 10 mg/kg
[1] = test system: Prostaglandin cyclooxygenase; assay: Mouse macrophage prostaglandin cyclooxygenase activity; assay type: cell-based
From the text: (§1) 3. Mouse macrophages J774A.1 BALB/c
(§2) Prostaglandin synthetase purified beef seminal vesicle ^3 H arachidonic acid (86.2 Ci/mmol), tlc separation.

Aryl sulphatase [2] = assay: Mouse macrophage aryl sulphatase activity; assay type: cell-based; settings: Table VII; mouse macrophage cultured cells, 60 min incubation; read-out: Aryl Sulphatase IC50
Sprague Dawley Rats = assay: Anti-inflammatory activity in Sprague Dawley rats; assay type: in vivo; settings: Table IV; 8 mg/kg I.P.
Trypsin [3] = assay: Mouse macrophage trypsin (BAEE) activity; assay type: cell-based
[4] = test system: Hepatic oxidative phosphorylation; assay: Hepatic oxidative phosphorylation, Gilson oxygraph; assay type: biochemical, mouse; settings: 10^-6 M; 1 µM
From the text: (§3) 1. Cf1 male mouse hepatic 10% homogenates in 0.25M sucrose+0.001MEDTA,pH 7.2.

Cf1 male mice [5] = assay: Writhing reflex, 0.6% acetic acid; assay type: in vivo; parameters: response vs control in vivo: dose or concentration left out as unconfirmed
Cf1 male mice [6] = assay: Anti-inflammatory screen, Winter's test, 2% carrageenan hind foot; assay type: in vivo
Method: Anti-inflammatory Screen- Cf1 - male mice-Winter's Test 2% carrageenan S.C. plantar surface of hind foot, drugs administered @8 or 10 mg/kg I.P. 2X
Winter, C.A., et al, Proc. Soc.

Cathepsin [7] = molecular target: T1, Cathepsin (Rattus norvegicus, UniProt P24268); assay: Rat PMNs cathepsin activity; assay type: cell-based; settings: pH 5; 5 × 10^-6 M, N=6; read-out: Rat PMNs Cathep.
T1 construct: azocasein assay pH 5.0
From the text: (§4) 2. PMNs-polymorphonuclear neutrophils-rat peritoneal cavity 0.5% oyster glycogen.
(§5) 2. Acid Cathepsin D -azocasein-pH 5.0, hydrolytic azo-peptide produce 366 nm.

Acid phosphatase [8] = assay: Rat PMNs acid phosphatase activity; assay type: cell-based; settings: 5 × 10^-6 M, N=6; 5 µM
From the text: as §4
(§6) 1. Acid phosphatase -beta glycerol-3-phosphate, pH 5.0, released IP 720 nm.

in vivo = settings: mouse, Table 1, N=6
Method: Amine borane compounds (0 to 100 mg/kg) were administered to CF1 male mice as a single injection with six mice for each dosage. Mice were weighed daily and the number of deaths was recorded each day for a 14 day period. The LD50 value was determined by the procedure of S.C. Gad and C.S. Weil, "Statistics for Toxicologists" in Principles and Methods of Toxicology, A.W. Hayes, Ed., 2nd Edition, P 435-483 Raven Press, New York 1982.

Elastase [9] = assay: Mouse macrophage elastase activity; assay type: cell-based
cAMP = assay: PMNs cAMP levels, Gilman's radioimmune assay; assay type: cell-based, rat; settings: 5 × 10^-6 M, N=6
From the text: as §4
cAMP levels Gilman's radioimmune assay. ^3 H(G)Cyclic-3', 5'-adenosine monophosphate.

Cathepsin D [10] = molecular target: T2, Cathepsin D (Mus musculus, UniProt P18242); assay: Mouse macrophage cathepsin D activity; assay type: cell-based; settings: Table VII; mouse macrophage cultured cells, DMEM +10% FCS +P/S, 60 min incubation; read-out: Cathepsin D IC50
T2 construct: azocasein assay pH 5.0
From the text: as §1, §5

Cf1 male mice [11] = assay: Writhing reflex, 0.6% acetic acid; assay type: in vivo; settings: Table 1; Indomethacin 10 mg/kg
Method: Writhing reflex- Cf1 -male mice- 0.6% acetic acid I.P. drugs administered @20 mg/kg/ I.P. 20 min. later - the # of stretches/10 min.
Hendershot, L.C., et al, J.

Acid phosphatase [12] = assay: Mouse hepatic lysosomal acid phosphatase activity; assay type: biochemical; settings: 5 × 10^-6 M, N=6; 5 µM
From the text: as §3
(§7) Lysosomal Enzymes - free and total [triton X-100].
as §6
Acid phosphatase activity -

Cathepsin D [13] = molecular target: T2, Cathepsin D; assay: Mouse hepatic lysosomal cathepsin D activity; assay type: biochemical
From the text: as §3, §7, §5
Cathepsin azo casein activity -

Acid phosphatase [14] = assay: Mouse macrophage acid phosphatase activity; assay type: cell-based
Aryl sulphatase [15] = assay: Human osteoporosis fibroblasts aryl sulphatase activity; assay type: cell-based; settings: read-out: Aryl Sulphatase IC50; Table X; human osteoporosis fibroblasts
From the text: 3. Aryl sulphatase- p-nitrocatechol sulfate, pH
5. 8 p-nitro-catechol product 510 nm.

Cathepsin [16] = assay: Human leukocyte cathepsin; assay type: cell-based; settings: read-out: Cathepsin IC50; Table XII; human leukocytes, 60 min incubation
From the text: 5. Human peripheral leukocytes, RPMI-1788
as §5

Trypsin [17] = assay: Human osteoporosis fibroblasts trypsin (BAEE) activity; assay type: cell-based; settings: read-out: Trypsin BAEE IC50; Table XI; human osteoporosis fibroblasts, 60 min incubation
From the text: 1. Trypsin- N-benzoyl-L-arginine ethyl ester pH 8.0, hydrolytic product 253 nm.

Acid phosphatase [18] = assay: Human osteoporosis fibroblasts acid phosphatase activity; assay type: cell-based; settings: read-out: Acid Phosphatase IC50; Table X; human osteoporosis fibroblasts
From the text: as §6

Prostaglandin synthetase = molecular target: T3, Prostaglandin synthetase (Bos taurus, UniProt O62664); assay: Prostaglandin synthetase (cyclooxygenase), purified beef seminal vesicle; assay type: biochemical; settings: Table IX; commercial enzyme preparation; read-out: Beef Prostaglandin Cyclooxygenase IC50
T3 construct: Prostaglandin synthetase purified beef seminal vesicle; from tissue
T3 sequence (O62664 25-600): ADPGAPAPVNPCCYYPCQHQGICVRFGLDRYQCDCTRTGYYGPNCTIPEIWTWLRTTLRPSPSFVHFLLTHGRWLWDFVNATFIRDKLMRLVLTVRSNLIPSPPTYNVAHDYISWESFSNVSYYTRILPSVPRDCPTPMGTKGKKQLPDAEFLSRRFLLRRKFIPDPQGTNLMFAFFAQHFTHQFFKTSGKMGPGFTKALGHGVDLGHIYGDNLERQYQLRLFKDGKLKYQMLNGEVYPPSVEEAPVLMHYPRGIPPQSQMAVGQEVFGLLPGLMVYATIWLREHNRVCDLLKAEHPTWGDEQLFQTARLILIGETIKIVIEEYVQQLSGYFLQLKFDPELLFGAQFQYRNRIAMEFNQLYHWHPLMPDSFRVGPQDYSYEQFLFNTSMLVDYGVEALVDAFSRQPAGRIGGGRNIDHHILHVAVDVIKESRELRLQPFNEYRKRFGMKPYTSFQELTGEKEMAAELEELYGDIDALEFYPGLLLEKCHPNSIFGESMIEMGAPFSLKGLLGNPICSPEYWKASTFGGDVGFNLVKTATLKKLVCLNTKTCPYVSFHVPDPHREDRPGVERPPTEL
From the text: as §2

[19] = molecular target: T4, Porcine Pancreatic Elastase (Sus scrofa, UniProt P00772); assay: Porcine pancreatic elastase activity in vitro; assay type: biochemical; settings: Table IX; commercial enzyme preparation
T4 construct: purchased; host or cells: porcine pancreas
From the text: (§8) 2. Elastase- N-succinyl-L-alanyl-L-alanine-p-nitroanilide, pH 8.0, p-nitro anilide 410 nm.

[20] = test system: Prostaglandin cyclooxygenase; assay: Human osteoporosis fibroblasts prostaglandin cyclooxygenase activity; assay type: cell-based; settings: read-out: Prostaglandin Cyclooxygense IC50, Table XI, 60 min incubation
Cathepsin D [21] = molecular target: T5, Cathepsin D (Homo sapiens, UniProt P07339); assay: Human osteoporosis fibroblasts cathepsin D (azo-casein) activity; assay type: cell-based; settings: Table X; human osteoporosis fibroblasts, DMEM +10% FCS + P/S; read-out: Cathepsin D IC50
T5 construct: azocasein assay pH 5.0
From the text: Osteoporosis Human Fibroblast-CRL-1140, Be SA1

Elastase [22] = assay: Human osteoporosis fibroblasts elastase activity; assay type: cell-based; settings: read-out: Elastase IC50; Table XI; human osteoporosis fibroblasts, 60 min incubation
From the text: as §8

5'-lipoxygenase = molecular target: T6, 5'-lipoxygenase (Mus musculus, UniProt P48999); assay: Mouse hepatic 5'-lipoxygenase activity; assay type: biochemical; settings: Table VI; mouse hepatic, 60 min incubation; read-out: 5'-lipoxygenase IC50
T6 construct: Cf1 male mouse hepatic 10% homogenates; from tissue; host or cells: CF1 male mouse liver, 10% homogenate
T6 sequence (P48999 1-674): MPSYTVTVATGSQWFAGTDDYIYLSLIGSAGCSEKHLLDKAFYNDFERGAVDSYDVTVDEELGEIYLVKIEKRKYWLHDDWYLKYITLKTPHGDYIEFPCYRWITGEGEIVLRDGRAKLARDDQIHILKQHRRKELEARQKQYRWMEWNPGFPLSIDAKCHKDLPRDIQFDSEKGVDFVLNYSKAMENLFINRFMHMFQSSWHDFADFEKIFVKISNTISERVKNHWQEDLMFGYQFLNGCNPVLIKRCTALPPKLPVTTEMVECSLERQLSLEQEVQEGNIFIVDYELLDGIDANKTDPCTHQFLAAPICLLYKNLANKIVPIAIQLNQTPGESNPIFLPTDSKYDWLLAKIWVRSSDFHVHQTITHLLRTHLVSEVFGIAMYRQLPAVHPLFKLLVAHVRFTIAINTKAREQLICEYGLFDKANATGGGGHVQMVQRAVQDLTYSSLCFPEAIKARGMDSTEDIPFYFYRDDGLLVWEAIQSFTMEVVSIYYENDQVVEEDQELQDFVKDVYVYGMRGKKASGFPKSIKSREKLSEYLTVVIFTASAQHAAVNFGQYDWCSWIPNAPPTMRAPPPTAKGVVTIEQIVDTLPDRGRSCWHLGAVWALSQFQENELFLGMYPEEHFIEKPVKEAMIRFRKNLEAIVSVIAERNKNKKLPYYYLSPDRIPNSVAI
From the text: as §3
5'-lipoxygenase Mylari, B.L., et al, J. Med.

Phosphorus = assay: Serum and urine inorganic phosphorus levels in vivo; settings: Cf1 male mice, 8 mg/kg/day I.P. 14 days, N=6
Calcium = assay: Serum and urine calcium levels in vivo; settings: Cf1 male mice, 8 mg/kg/day I.P. 14 days, N=6
Hydroxyproline = assay: Serum and urine hydroxyproline levels in vivo; settings: Cf1 male mice, 8 mg/kg/day I.P. 14 days, N=6

T2 sequence (P18242 65-410): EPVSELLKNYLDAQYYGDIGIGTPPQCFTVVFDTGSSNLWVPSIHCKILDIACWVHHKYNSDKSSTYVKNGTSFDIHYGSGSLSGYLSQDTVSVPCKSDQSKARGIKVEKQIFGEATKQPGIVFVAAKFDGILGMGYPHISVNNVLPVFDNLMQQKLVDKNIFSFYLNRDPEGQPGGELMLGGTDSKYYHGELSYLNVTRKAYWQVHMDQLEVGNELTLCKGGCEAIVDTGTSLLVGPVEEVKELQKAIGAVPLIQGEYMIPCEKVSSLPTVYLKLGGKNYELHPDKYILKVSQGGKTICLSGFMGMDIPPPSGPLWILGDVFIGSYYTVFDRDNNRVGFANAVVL
T4 sequence (P00772 27-266): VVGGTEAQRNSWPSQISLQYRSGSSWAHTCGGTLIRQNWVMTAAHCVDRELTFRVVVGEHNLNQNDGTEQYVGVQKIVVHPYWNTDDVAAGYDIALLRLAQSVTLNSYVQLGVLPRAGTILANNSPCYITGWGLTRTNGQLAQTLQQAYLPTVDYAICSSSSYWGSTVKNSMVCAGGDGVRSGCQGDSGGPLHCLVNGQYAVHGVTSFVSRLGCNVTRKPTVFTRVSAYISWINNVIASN
T5 sequence (P07339 65-412): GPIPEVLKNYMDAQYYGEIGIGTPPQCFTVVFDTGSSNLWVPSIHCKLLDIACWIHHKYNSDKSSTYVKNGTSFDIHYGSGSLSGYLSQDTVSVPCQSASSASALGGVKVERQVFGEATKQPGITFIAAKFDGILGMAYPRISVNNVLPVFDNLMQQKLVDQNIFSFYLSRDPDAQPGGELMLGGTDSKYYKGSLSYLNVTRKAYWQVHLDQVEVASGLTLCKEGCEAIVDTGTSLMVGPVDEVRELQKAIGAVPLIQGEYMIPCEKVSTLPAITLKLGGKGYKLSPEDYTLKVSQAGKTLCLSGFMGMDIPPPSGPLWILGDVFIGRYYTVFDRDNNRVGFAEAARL
T1 sequence (P24268 65-407): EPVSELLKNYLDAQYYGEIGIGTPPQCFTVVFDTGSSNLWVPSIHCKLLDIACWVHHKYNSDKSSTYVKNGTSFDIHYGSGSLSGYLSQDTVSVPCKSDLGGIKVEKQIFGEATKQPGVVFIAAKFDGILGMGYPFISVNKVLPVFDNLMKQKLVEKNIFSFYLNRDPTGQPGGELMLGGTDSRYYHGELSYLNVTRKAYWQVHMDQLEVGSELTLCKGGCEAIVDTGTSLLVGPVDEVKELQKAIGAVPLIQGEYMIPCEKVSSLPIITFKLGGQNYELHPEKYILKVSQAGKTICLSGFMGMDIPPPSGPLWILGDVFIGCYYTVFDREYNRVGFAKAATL

Structure (SMILES): C[N+](C)(C)[BH2-]C(=O)O [Compound 3, Trimethylamine-carboxyborane]
Anti-arthritic (Sprague Dawley male rats): 53 % Control | IC50 ([1]; Table VIII; mouse macrophages, 60 min incubation; read-out: Prostaglandin Cyclooxygenase IC50): 2.81 µM | IC50 (Aryl sulphatase [2]): 7.42 µM | Anti-Inflammatory Activity Sprague Dawley Rats (Sprague Dawley Rats): 59 % Control | IC50 (Trypsin [3]; Table VIII; mouse macrophages, 60 min incubation; read-out: Trypsin BAEE IC50): 2.78 µM | Hepatic Oxidative Phosphorylation Succinate State 3 [4]: 63 + 4 % Control | Hepatic Oxidative Phosphorylation Succinate State 4 [4]: 122 + 14 % Control | Hepatic Oxidative Phosphorylation alpha-Ketoglutrate State 3 [4]: 70 + 20 % Control | Hepatic Oxidative Phosphorylation alpha-Ketoglutrate State 4 [4]: 127 + 22 % Control | Writhing Reflex Cf1 Mice (Cf1 male mice [5]; Table IV, 8 mg/kg I.P.): 11.5 % Control | Anti-inflammatory (Cf1 male mice [6]; Table 1, drugs 8 or 10 mg/kg I.P. 2X, Indomethacin 10 mg/kg): 79 % Control | Anti-Inflammatory Activity Mice (Cf1 male mice [6]; Table IV, 8 mg/kg I.P.): 58 % Control | activity at 5 µM (Cathepsin [7]): 14% | Rat PMNs Acid Phoph. (Acid phosphatase [8]): 50 + 3 % Control | LD50 at 336 h (in vivo): 1800 mg/kg | IC50 (Elastase [9]; Table VIII; mouse macrophages, 60 min incubation; read-out: Elastase IC50): 2.14 µM | PMNs cAMP (cAMP): 99 % Control | IC50 (Cathepsin D [10]): 6.71 µM | Writhing (Cf1 male mice [11]): 29 % Control | Mouse Liver Acid Phosph. (Acid phosphatase [12]): 82 + 5 % Control | activity at 5 µM (Cathepsin D [13]; pH 5, 5 × 10^-6 M, N=6, read-out: Mouse Liver Cathep.): 56% | IC50 (Acid phosphatase [14]; Table VII; mouse macrophage cultured cells, 60 min incubation; read-out: Acid Phosphatase IC50): 1.04 µM

Structure (SMILES): [BH3-][NH+]1CCOCC1 [Compound 1, Morpholine-borane]
IC50 (Aryl sulphatase [15]): 8.99 µM | IC50 ([1]; read-out: Prostaglandin Cyclooxygenase IC50; Table VIII; mouse macrophages, 60 min incubation): 1.47 µM | IC50 (Cathepsin [16]): 72.8 µM | IC50 (Trypsin [17]): 7.88 µM | IC50 (Trypsin [3]; read-out: Trypsin BAEE IC50; Table VIII; mouse macrophages, 60 min incubation): 2.39 µM | IC50 (Acid phosphatase [18]): 10.3 µM | response vs control in vivo (Cf1 male mice [5]; Mus musculus, ip, read-out: Writhing Reflex Cf1 Mice): 15.2% | IC50 (Prostaglandin synthetase): 2.36 µM | IC50 [19]: 14.9 µM | IC50 [20]: 3.41 µM | IC50 (Elastase [9]; read-out: Elastase IC50; Table VIII; mouse macrophages, 60 min incubation): 5.94 µM | IC50 (Cathepsin D [21]): 4.4 µM | IC50 (Elastase [22]): 1.84 µM | IC50 (5'-lipoxygenase): 66.9 µM | IC50 (Cathepsin D [13]; Table V, mouse hepatic, 60 min incubation, read-out: Cathepsin D IC50): 0.88 µM | IC50 (Acid phosphatase [14]; read-out: Acid Phosphatase IC50; Table VII; mouse macrophage cultured cells, 60 min incubation): 3.18 µM

IC50 (Prostaglandin synthetase): 1.92 µM | IC50 [19]: 27.6 µM
Structure (SMILES): CCCCCCCCCCCCCCCCCC[N+](C)(C)[BH2-]C(=O)O [Compound 6, N,N-Dimethyloctadecylamine-carboxyborane]
Phosphorus serum (Phosphorus): 86.2 % Control | Phosphorus urine (Phosphorus): 65.4 % Control | Calcium serum (Calcium): 135.4 % Control | Calcium urine (Calcium): 64.4 % Control | response vs control in vivo at 20 mg/kg (Cf1 male mice [5]; Mus musculus, ip, Table IV): 14.1% | Hydroxyproline serum (Hydroxyproline): 76.4 % Control | Hydroxyproline urine (Hydroxyproline): 60.6 % Control
